One data set relates to PKCγ. Description: Expression of PKCγ. The class given is cell-based. The settings on record: 100, 200, 300 and 500 nM, 24 hours. As to the method: However, PQ3 has an opposite effect on mammary cancer cell lines. […] A summary of PQ-mediated GJIC activity and colony growth in breast and colon cancer cells is presented in Tables 1, 2, and 3, as well as FIGS. 10-13. In FIG. 10, SW620 cells were dosed for 24 hours with PQ1 at 100, 200, 300, and 500 nM. The gap junction activity was measured as a percent of control, as previously described. It was seen that all concentrations on PQ1 increased the gap junction activity in SW620 colon cancer cells as compared to the control. In FIG. 11, the effect of PQ1 on the expression of PKCγ was studied at concentrations of 100, 200, 300 and 500 nM PQ1 for 24 hours. It is seen in FIG. 11 that PQ1 has no effect on the expression of PKCγ at the levels tested. In FIGS. 12 and 13, the effect of PQ1 on the colony growth of SW620 colon cancer cells was measured with 1-100 nM PQ1 (FIG. 12) and 10 uM PQ1 (FIG. 13).

The test system of another data set is caspase-3. Kind of data set: CoCl2 chemical hypoxia in R28 cells, caspase-3 activation by Western blot. Type of data set: cell-based, rat. The method, then: (A) About 70% confluent retinal R28 cells were treated with 100, 200 and 500 μM CoCl2 for 24 h with or without the pre-treatment of PQ1 (10 μM, 40 min) in a cell culture chamber (5% CO2, room air, 37° C.). Caspase-3 activation was determined by Western blotting in whole cell homogenates (WCH). (B) HIF1α stabilization was measured in the nuclear extracts (NE) after treatment with 500 μM CoCl2 at different time intervals with or without the pretreatment of PQ1. […] Levels of Cx43 and phosphoCx43-Ser368 are measured in WCH. β-Actin is used as a loading control.
Approximately 70% confluent retinal R28 cells were pre-incubated with PQ1 (10 μM, 40 min), followed by CoCl2 treatments at 100, 200 and 500 μM for different time periods in a cell culture chamber (5% CO2, room air, 37° C.). Hypoxia induction was confirmed by testing the hypoxia-inducible factor 1-α (HIF1α) protein expression levels in nuclear extracts by Western blotting.
Western blot. Western blotting was performed as described previously. […]
Next, it was determined whether PQ1 inhibition of gap junctions could prevent retinal neurosensory R28 cells from apoptosis using a chemical (CoCl2)-induced ischemia system as our model. […]
Background: A western blot detects proteins with antibodies after separation by electrophoresis.

In a further data set the test system is T47D cells. Kind of data set: Electron microscopy of PQ1-treated cells. The class given is cell-based, human. The settings on record: PQ1 treatment.
The next data set concerns active caspase 3. Kind of data set: Western blot of active caspase 3 in T47D cells. Type of data set: cell-based, human. As to the method: T47D cells were treated with 0, 200 nM, 500 nM and 1 μM PQ1 for 24 hours. Treatment with succinic acid was used as control. Western blot analysis was performed. Nitrocellulose membrane was blotted with the active form of caspase 3 antibodies (16 kDa). Actin acts as loading control. Graphical presentation of three experiments are presented with statistical significance, p<0.05.
Western Blot analysis: Cells were grown in RPMI media until they were 90% confluent in 75 cm2 flasks. Cells were dosed with 200, 500 nM of PQ1 for 24 hours. Cells were harvested with lysis buffer and centrifugated. Cell lysate was run on a 12% SDSpolyacrylamide gel electrophoresis (PAGE) and transferred to nitrocellulose membrane. Membrane was incubated with Caspase Antibody. Western blots were detected by enhanced chemiluminescence detection reagents.
The effect of PQ1 on apoptosis was further examined by detecting the active form of caspase 3. T47D cells were treated with […] PQ1 for 24 hours. Western blot analysis was performed using active form of caspase 3 antibodies. A 200 nM PQ1 causes 1.5-fold increase of active caspase 3 compared to control (FIG. 18). However, a decrease of caspase is observed in higher concentrations, a common effect in apoptotic protein expression. This is due to the cytotoxicity response of the cells.
Western Blot Analysis. Cells were grown in serum supplemented RPMI media until they were 90% confluent in 75 cm^2 flasks. Cells were kept in starving media containing phenol red-free DMEM with 5% charcoal dextran stripped serum, overnight. Cells were dosed with 0, 10, 100, 200 and 500 nM of PQ1 for 24 hours. Cells were washed three times with cold PBS and then were harvested using lysis buffer (20 mM Tris pH 7.5, 0.5 mM EDTA, 0.5 mM EGTA, 0.5% Triton X-100) with 1:1000 dilution of protease inhibitors (Sigma-Aldrich, Saint Louis, Mo.). Cell lysate was sonicated and centrifuged at 13,000 rpm for 30 minutes at 4° C. […] Western blots were detected by enhanced chemiluminescence detection reagents (Pierce, Rockford, Ill., USA).

Molecules are shown by their SMILES.

As to `COc1cc(NCCCN)c2nccc(C)c2c1Oc1cccc(C(F)(F)F)c1.O=C(O)CCC(=O)O` [PQ1, 6-Methoxy-8-[(3-aminopropyl)amino]-4-methyl-5-(3-trifluoromethylphenyloxy) quinoline succinic acid], in the data set on PKCγ, the “expression of PKCγ” value is reported as “no effect”. The “CoCl2-induced activation of caspase-3” value in the data set on caspase-3 (PQ1 10 μM 40 min pre-incubation, then 500 μM CoCl2 24 h) was “blocked the activation of caspase-3 substantially”. Besides, the “activation of caspase-3” value in the data set with caspase-3 (PQ1 alone) is listed as “did not cause activation”. Further, in the data set on T47D cells, the “mitochondria by electron microscopy” value is “Mitochondrial damage”. The “increase of active caspase 3” value in the data set with active caspase 3 (200 nM, 24 hours, compared to control) is 1.5 fold. Besides, the “increase in the expression of active caspase 3” value with active caspase 3 (200 and 500 nM) is on record as 50%. Moreover, the “active caspase 3” value with active caspase 3 (higher concentrations, 24 hours) is reported as “decrease”.

For the origin of these results see patent US8809368B2, “Compounds affecting gap junction activity” (Kansas State University Research Foundation, priority 2006, dated 2014).
